According to patent US20040038861A1, “Methods and compositions for normalizing lipid levels in mammalian tissues” (priority 2001, published 2004):
Where no end group is shown, it is not given here.

Tests used:
soleus muscle [1] = assay: cAMP content of isolated soleus muscle from normal fed rats; assay type: cell-based, rat; settings: for cAMP content in soleus muscles: 1 μM isoproterenol
Method: (§1) Soleus muscle preparation. All experiments were performed according to protocols approved by the Institutional Animal Ethics Committee. 5-6 week-old male Wistar rats (160 g) were kept on a 12:12-h light/dark cycle, and fed and watered ad libitum. Animals were anaesthetised with 50 mg/kg Nembutal (pentobarbitone sodium), then sacrificed by cervical dislocation. Soleus muscles were dissected under oxygenated KHB (118 mM NaCl, 4.75 mM KCl, 1.2 mM MgSO4, 24.8 mM NaHCO3, 1.2 mM KH2PO4, 2.54 mM CaCl2, 10 mM glucose, pH 7.4) and teased into halves, then incubated as described below.
(§2) For the measurement of cAMP in muscle, isolated soleus strips were incubated with stated concentrations of peptides, then lyophilized and deproteinized. Each strip was placed in 400 μl of 0.5 M HClO4 with 5 mM EDTA (phosphodiesterase inhibitor) and sonicated three times in 20 s bursts. Tubes were heated for 3-5 min in boiling water to coagulate protein, then centrifuged (12,000 g, 4° C., 2 min). Supernatant (300 μl) was taken and the pH adjusted to 7.0 with 75 μl of 2 M NH4OH. The samples were refrigerated (4° C., 2 h) to precipitate proteins, then centrifuged under the same conditions as above and 50 μl taken for cAMP measurement.

soleus muscle [2] = assay: Masoprocol effect on CGRP1-evoked NEFA and triglyceride contents in soleus muscle from high fat-fed rats; assay type: cell-based, rat; settings: 50 μM masoprocol with 100 nM or 1 pM CGRP1
Source text: Masoprocol, (nordihydroguaiaretic acid), is a lipoxygenase inhibitor, that has been identified as the active component of Creosote bush extracts. Oral administration of this compound lowers serum NEFA and triglyceride concentrations in rats with fructose-induced hypertriglyceridemia (Gowri et al. 2000, Am. J. Physiol. 279: E593-E600), and decrease blood glucose and triglyceride concentrations in a fat-fed/streptozotocin rat model (Reed et al. 1999, Diabetologia 42: 102-106).

[3] = molecular target: T1, murine ramp 1/C1ins− receptor (Mus musculus, UniProt Q60755+Q9WTJ5); assay: Radioligand binding and displacement of [3H]amylin in L6 myoblasts co-transfected with murine ramp 1 and C1ins−; settings: displacement of [3H]amylin, FIG. 9A
T1 construct: expressed in transfected cells; host or cells: L6 myoblasts (ATCC), transient co-transfection of pcDNA3.1 plasmids
T1 sequence (Q60755 42-496 isoform Q60755-2 limits assumed): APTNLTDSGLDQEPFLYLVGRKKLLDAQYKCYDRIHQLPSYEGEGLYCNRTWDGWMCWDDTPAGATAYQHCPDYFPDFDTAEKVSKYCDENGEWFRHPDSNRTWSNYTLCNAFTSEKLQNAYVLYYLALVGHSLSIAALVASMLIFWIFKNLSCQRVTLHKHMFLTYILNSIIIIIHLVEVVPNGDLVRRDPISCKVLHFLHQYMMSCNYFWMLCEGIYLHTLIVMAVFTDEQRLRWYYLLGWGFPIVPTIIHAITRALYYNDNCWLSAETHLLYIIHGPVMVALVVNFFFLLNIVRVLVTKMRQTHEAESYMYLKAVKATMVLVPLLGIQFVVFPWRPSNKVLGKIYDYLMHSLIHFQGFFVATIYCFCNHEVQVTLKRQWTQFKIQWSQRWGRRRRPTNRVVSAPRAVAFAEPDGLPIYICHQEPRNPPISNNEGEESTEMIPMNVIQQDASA
T1 sequence (Q9WTJ5 27-148 partner): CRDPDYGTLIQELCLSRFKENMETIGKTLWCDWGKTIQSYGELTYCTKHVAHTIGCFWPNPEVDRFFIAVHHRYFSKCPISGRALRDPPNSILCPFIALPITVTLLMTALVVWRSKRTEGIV
Method: Transfection of L6 myoblasts and cos-7 cells, and analysis of radioligand binding. L6 myoblasts and cos-7 cells were obtained from ATCC. Both cell lines were cultered in Dulbecco's modified Eagle's medium (DMEM; Gibco/BRL, high glucose) supplemented with 10% fetal calf serum (Gibco/BRL, Gaithersburg, Md.), L-glutamine (2 mM), penicillin (100 U/ml; Sigma), streptomycin (100 mg/ml; Sigma), saline (0.85%), under 5% CO2/95% air at 37° C. The day before transfection, cells were trypsinised and seeded into six-well plates at a density of 2.9×10^5 cells/well in the same medium. For transfection, cells were incubated with a mixture comprising 1 μg each of Qiagen-purified (Qiagen, Valencia, Calif.) plasmids containing C1ins− with either ramp 1 or ramp 3, and Fugene reagent (6 μl; Boehringer Mannheim) in Opti-Mem I medium (Gibco/BRL). The complex was added with serum to cells, which were incubated for a further 48 h.
For binding experiments, radioligand (either alone or together with stated final concentrations of non-radiolabeled ligands) was dissolved in DMEM containing 0.1% BSA (binding buffer) for 1 h before binding experiments were performed. […] Cells were washed twice with this buffer, then incubated with 1 ml of the same plus radioligand for 4 h at room temperature (21° C.).

soleus muscle [4] = assay: cAMP content of isolated soleus muscle from high fat-fed rats; assay type: cell-based, rat
Method: as §1, §2

soleus muscle [5] = assay: Lipid metabolites (free fatty acid, glycerol, triglyceride; enzymatic analysis) in isolated soleus muscle from normally fed rats; assay type: cell-based, rat; settings: 1 h; for free fatty acid content in conjunction with 100 nM CGRP: 10 μM antagonist or maximally stimulating insulin (23.7 nM) + 100 nM CGRP, CGRP alone 334±52; for free fatty acid content in conjunction with 100 nM amylin: 10 μM antagonist or maximally stimulating insulin (23.7 nM) + 100 nM amylin, amylin alone 216±26
Wistar rats [6] = assay: Tissue free fatty acid and triglyceride content following infusion in normal-fed rats; assay type: in vivo, rat
Method: (§3) Surgery. Experiments were performed on male Wistar rats. Animals were randomly assigned to experimental groups as outlined below. Induction and maintenance of surgical anesthesia was by 3-5% halothane and 2L oxygen. An initial blood sample was taken from a tail artery for measurement of baseline levels of blood glucose and lactate, electrolyte, acid base and oxygen status and serum levels of free fatty acids, triglyceride and cholesterol. Immediately following this, the trachea was cannulated and the animal ventilated at 60-70 breaths.min-1 with air supplemented with O2. The respiratory rate and end-tidal pressure (10-15 cmH2O) were adjusted to maintain end-tidal CO2 at 35-40 mmHg. Body temperature was maintained at 37° C. throughout surgery and the experiment by a heating pad. The carotid artery and jugular vein were cannulated with a solid-state blood pressure transducer and a saline filled PE 50 catheter respectively. For the antagonist infusion studies, surgery was similar to above with the alteration being that both the carotid artery and jugular vein were cannulated with saline filled PE 50 catheters. Fluids (saline or hormone dissolved in saline) were delivered to the jugular vein with a Y-connector to join the two lines. The carotid artery line was connected to a blood pressure transducer. Blood samples were taken from this line at time zero (baseline reading), 30 minutes and every 20 minutes until the end of the experiment at 90 minutes.
(§4) Infusion. […] Blood glucose measurements were taken from tail capillaries at 5-minute intervals throughout the duration of the experiment. At the end of the infusion a terminal blood sample was taken by cardiac puncture and analysed as per the basal sample and also for various metabolites and hormones. Serum and plasma samples were stored at −80° C. until future analysis. Animals were killed by cervical dislocation and harvested tissues (brain, liver, kidney, soleus muscle, extensor digitorum longus muscle, left ventricle, retroperitoneal and epididymal fat pads) snap frozen in liquid N2 and stored at −80° C. until future analysis. For the antagonist studies, the protocols was the same as above with the following changes: Infusion was a combination of antagonist, CGRP or saline.

Wistar rats [7] = assay: Serum hormones and blood metabolites following acute CGRP infusion in anaesthetised normal-fed rats; assay type: in vivo, rat; settings: end vs commencement of infusion
Method: as §3
as §4, with “analysis.” for “analysis. For the antagonist studies, the protocols was the same as above with the following changes: Infusion was a combination of antagonist, CGRP or saline.”

soleus muscle [8] = assay: Glucose transport (2-deoxy-D-glucose uptake) in incubated soleus muscle strips; assay type: cell-based, rat
Method: as §1
Determination of rates of glucose transport in incubated soleus muscle strips. 4-5 muscle strips were added to each flask, which contained 10 ml DMEM. They were pre-incubated with hormones as indicated for 30 min at 30° C. in a shaking water bath, after which 5 μl of 2[^3H]DOG (0.5 μCi/ml) and 5 μl D[^14C(U)]sorbitol (0.05 μCi/ml) were added, then incubated for another 30 min; RIA grade BSA was added to 0.9% (w/v) to prevent non-specific binding of insulin to flasks. Following incubation, muscle strips were transferred to ice-cold KHB for 5-10 min to remove excess [^3H]DOG and [^14C]sorbitol. They were then blotted, frozen, tendons excised, then lyophilized for a further 48 h. Muscles were then weighed, transferred to scintillation vials and digested with 0.5 ml 1 M NaOH at 60° C. for 1 h. Scintillation fluid (4 ml) was added to each vial, and samples counted in a Beckman liquid scintillation spectrometer, preset to count ^14C and ^3H channels simultaneously. The amount of each isotope present in the samples was determined and used to calculate the extracellular space and the intracellular concentration of [^3H]DOG. The accumulation of intracellular [^3H]DOG, a measure of muscle glucose uptake, was calculated by subtracting the concentration of [^3H]DOG in the extracellular space from the corresponding total muscle [^3H]DOG]; extracellular [^3H]DOG was quantified by measuring the muscle concentration of [^14C]sorbitol.
Data analysis. One way ANOVA, Dunnett's Multiple Comparisons Test, and unpaired Student's t-tests were used to calculate the statistical significance of differences, as appropriate. Dose-response curves were fitted to a sigmoidal dose-response algorithm, as follows: Y=minimum+(maximum−minimum)/([…] log ^(EC50^−X), for 2-DOG-uptake; and by a four parameter logistic model, Y=minimum+(maximum−minimum)/(1+10 log ^(EC50^−X)Hill-Coefficient) for total glycogen and [^14C]glucose incorporation. Calculations were performed using Prism v2.0 (GraphPad Software, San Diego, Calif.) to derive values for half-maximal effective concentration (EC50). Displacement curves derived for competition of bound radioligand with cold ligand in transfected cells were calculated according to a one site competition fit using Prism v2.0.

[9] = molecular target: metabolic amylin receptor

Q: `CNCC(O)c1ccc(O)c(O)c1` (stereo not shown) [adrenaline] was tested. Which “cAMP content, agonist alone” value (soleus muscle [1]; normal fed, 100 nM CGRP or adrenaline, control 3.9±0.2) did it give?
A: 9.6 ± 0.7 pmol/mg

Q: For `CC(C)NCC(O)c1ccc(O)c(O)c1` (stereo not shown) [isoproterenol], which “cAMP content in soleus muscles” value (soleus muscle [1]; experiment of FIG. 13A) is on record?
A: 3.5 ± 0.2 pmol/mg

Q: And the “cAMP content in soleus muscles” value (soleus muscle [1]; experiment of FIG. 13B)?
A: 3.8 ± 0.2 pmol/mg

Q: What does the source list for `CC(Cc1ccc(O)c(O)c1)C(C)Cc1ccc(O)c(O)c1` (stereo not shown) [masoprocol, nordihydroguaiaretic acid]?
A: effect on CGRP1-evoked NEFA elevation (soleus muscle [2]): completely reversed NEFA elevation; effect on CGRP1-evoked decrements in triglyceride content (soleus muscle [2]): completely reversed decrements in soleus triglyceride content

Q: With Human adrenomedullin as the molecule, how does the “competition with amylin for binding to co-transfected cells” value [3] read?
A: competed only very weakly

Q: human CGRP1-(8-37) [CGRP-(8-37)] was tested. Which “cAMP content with 100 nM CGRP plus antagonist” value (soleus muscle [1]; normal fed, 10-fold molar excess of antagonist, CGRP alone 6.9±0.8) did it give?
A: 4.8 ± 0.2 pmol/mg

Q: What about the “cAMP content with 100 nM CGRP1 plus antagonist” value (soleus muscle [4]; 10-fold molar excess of antagonist) of the same molecule?
A: 5.4 ± 0.4 pmol/mg

Q: What about the “cAMP content with 1 pM CGRP plus antagonist” value (soleus muscle [4]; 10-molar excess of antagonist, CGRP alone 8.6±0.4) of the same molecule?
A: 4.7±0.5 pmol/mg

Q: And the “free fatty acid concentration in conjunction with 1 pM CGRP” value (soleus muscle [5]; 100 pM antagonist + 1 pM CGRP, CGRP alone 166±18)?
A: 68±8 nmol/g

Q: And the “free fatty acid content in conjunction with 100 nM CGRP” value (soleus muscle [5])?
A: 90 ± 7 nmol/g

Q: What about the “free fatty acid content in conjunction with 100 nM amylin” value (soleus muscle [5]) of the same molecule?
A: 65 ± 8 nmol/g

Q: And the “FFA content, Heart” value (Wistar rats [6]; CGRP 100 pmol/kg/min 1 h, CGRP-(8-37) 10 nmol/kg/min 90 minutes, control 0.8 ± 0.2)?
A: 0.9 ± 0.2 µmol/g

Q: What about the “FFA content, Liver” value (Wistar rats [6]; same infusions, control 0.1 ± 0.01) of the same molecule?
A: 0.06 ± 0.04 µmol/g

Q: And the “FFA content, Soleus Muscle” value (Wistar rats [6]; same infusions, control 0.2 ± 0.02)?
A: 0.1 ± 0.02 µmol/g

Q: And the “FFA content, Kidney” value (Wistar rats [6]; same infusions, control 0.8 ± 0.1)?
A: 0.8 ± 0.1 µmol/g

Q: And the “FFA content, Epi Adipose” value (Wistar rats [6]; same infusions, control 2.1 ± 0.5)?
A: 2.2 ± 0.6 µmol/g

Q: And the “triglyceride content, Kidney” value (Wistar rats [6]; same infusions, control 2.8 ± 0.5)?
A: 2.5 ± 0.4 µmol/g

Q: What about the “triglyceride content, Heart” value (Wistar rats [6]; same infusions, control 2.9 ± 0.4) of the same molecule?
A: 3.1 ± 0.4 µmol/g

Q: What about the “triglyceride content, Soleus Muscle” value (Wistar rats [6]; same infusions, control 3.7 ± 0.4) of the same molecule?
A: 4.3 ± 0.4 µmol/g

Q: And the “triglyceride content, Liver” value (Wistar rats [6]; same infusions, control 4.3 ± 0.3)?
A: 5.8 ± 0.4 µmol/g

Q: What about the “triglyceride content, Epi Adipose” value (Wistar rats [6]; same infusions, control 5.1 ± 1.2) of the same molecule?
A: 4.9 ± 1 µmol/g

Q: What about the “Change in [serum] Triglyceride” value (Wistar rats [7]; CGRP 60 min, CGRP-(8-37) 90 min, control 0.2) of the same molecule?
A: 0.9 mmol/L

Q: What about the “Change in [serum] FFA” value (Wistar rats [7]; control −0.1) of the same molecule?
A: -0.3 mmol/L

Q: And the “Change in Lactate” value (Wistar rats [7]; heparinised whole blood, control 0.3)?
A: 0.02 mmol/L

Q: For “insulin: Soluble human insulin (Actrapid 100U, Novo Nordisk)”, which “free fatty acid content in conjunction with 100 nM CGRP” value (soleus muscle [5]) is on record?
A: 107 ± 17 nmol/g

Q: What about the “free fatty acid content in conjunction with 100 nM amylin” value (soleus muscle [5]) of the same molecule?
A: 100 ± 11 nmol/g

Q: What about the “intramuscular free fatty acid content” value (soleus muscle [5]; soleus, normally fed rats, 100 nM amylin or CGRP-1, 4.4 μM norepinephrine, 23.7 nM insulin, control 78±21) of the same molecule?
A: 67 ± 9 nmol/g

Q: What about the 2-DOG-uptake (soleus muscle [8]; hormone alone (amylin 10 nM; insulin 23.7 nM), basal 8.8 ± 0.9) of the same molecule?
A: 28.4 ± 6.4 nmol/g dry-wt muscle/min

Q: What about the “stimulation of glucose uptake” value (soleus muscle [8]; insulin 23.7 nM vs basal) of the same molecule?
A: 3.2 fold

Q: With rat CGRP-1 (ligand; unit assumed) as the molecule, how does the EC50, total glycogen content, with insulin (23.7 nM) [9] read?
A: 4.3 nM

Q: How did the EC50, total glycogen content, with insulin (23.7 nM) [9] turn out when “rat amylin (from UniProt P12969) (ligand; unit assumed)” was run?
A: 8.1 nM

Q: “rat calcitonin (CGNLSTCMLGTYTQDLNKFHTFPQTSIGVGAP; ends and bridges not checked; cysteine pairing not given here) [calcitonin family peptide from Bachem]” was tested. Which “competition with amylin for binding to co-transfected cells” value [3] did it give?
A: competed only very weakly

Q: How did the EC50, total glycogen content, with insulin (23.7 nM) [9] turn out when “salmon calcitonin (from UniProt P01263) (ligand; unit assumed)” was run?
A: 0.6 nM

Q: Which EC50, ^14C-glucose incorporation into glycogen, with insulin (23.7 nM) [9] does the source give for CSNLSTCVLGKLSQELHKLQTYPRTNTGSGTP (ligand, ends and bridges not checked; cysteine pairing not given here) [salmon calcitonin] here?
A: 0.9 nM

Q: What about the EC50, ^14C-glucose incorporation into glycogen, without insulin [9] of the same molecule?
A: 0.1 nM

Q: What about the EC50, total glycogen content, without insulin [9] of the same molecule?
A: 1.7 nM
